Data from patent US20130252816A1, “HERBICIDAL COMPOSITION AND USE THEREOF” (Syngenta Crop Protection LLC, priority 2010, published 2013).

How the values were obtained:
Test in all cases: Example 1: adjuvants alone, visual % damage, pots in glasshouse
Format in all cases: in vivo
[1] = system: Poa annua
Method: (§1) The effect of different adjuvants (see Table 1 below) on the growth of broadleaf weed and grass species was investigated and compared to untreated (water only) control weeds.
(§2) Plates, each with 48 pots measuring 2.7 cm diameter and 5 cm deep, were filled with TKS1 growing media (Floragard, Germany). Seeds of Taraxacum officinale, Stellaria media or Poa annua were sown on the surface (10 to 20 per pot). Plants were grown in glasshouse at a temperature of 18 to 20° C. and at 60% relative humidity.
(§3) Plants were treated 15 (Stellaria, Poa) and 34 (Taraxacum) days after sowing with 60 μl of a 1.25, 2.5, 5 and 10% (w/v) solution of adjuvant using a hand airbrush.
(§4) Visual assessment of the percentage damage to the plant was carried out 1 day and 6 days from application.
(§5) Damage was assessed as wilting, desiccation or any other kind of visual injury in comparison to the untreated control (water only).

[2] = system: Stellaria media
Method: as §1, §2, §3, §4, §5

[3] = system: Taraxacum officinale
Method: as §1, §2, §3, §4, §5

| Substance | avg % damage 1 DAA Poa annua ([1]; adjuvant 1.25% w/v) [%] | avg % damage 6 DAA Poa annua ([1]; adjuvant 1.25% w/v) [%] | avg % damage 1 DAA Poa annua ([1]; adjuvant 2.5% w/v) [%] | avg % damage 6 DAA Poa annua ([1]; adjuvant 2.5% w/v) [%] | avg % damage 1 DAA Poa annua ([1]; adjuvant 5% w/v) [%] | avg % damage 6 DAA Poa annua ([1]; adjuvant 5% w/v) [%] | avg % damage 1 DAA Poa annua ([1]; adjuvant 10% w/v) [%] | avg % damage 6 DAA Poa annua ([1]; adjuvant 10% w/v) [%] | avg % damage 1 DAA Stellaria media ([2]; adjuvant 1.25% w/v) [%] | avg % damage 6 DAA Stellaria media ([2]; adjuvant 1.25% w/v) [%] | avg % damage 1 DAA Stellaria media ([2]; adjuvant 2.5% w/v) [%] | avg % damage 6 DAA Stellaria media ([2]; adjuvant 2.5% w/v) [%] | avg % damage 1 DAA Stellaria media ([2]; adjuvant 5% w/v) [%] | avg % damage 6 DAA Stellaria media ([2]; adjuvant 5% w/v) [%] | avg % damage 1 DAA Stellaria media ([2]; adjuvant 10% w/v) [%] | avg % damage 6 DAA Stellaria media ([2]; adjuvant 10% w/v) [%] | avg % damage 1 DAA Taraxacum officinale ([3]; adjuvant 1.25% w/v) [%] | avg % damage 6 DAA Taraxacum officinale ([3]; adjuvant 1.25% w/v) [%] | avg % damage 1 DAA Taraxacum officinale ([3]; adjuvant 2.5% w/v) [%] | avg % damage 6 DAA Taraxacum officinale ([3]; adjuvant 2.5% w/v) [%] | other results |
| --- | --- | --- | --- | --- | --- | --- | --- | --- | --- | --- | --- | --- | --- | --- | --- | --- | --- | --- | --- | --- | --- |
| Oleyl alcohol polyglycol ether with 15 moles of ethoxylation [GenapolO150] | 0 | 0 | 0 | 0 | 0 | 0 | 0 | 0 | 0 | 5 | 0 | 20 | 13 | 30 | 43 | 60 | 0 | 3 | 0 | 0 | avg % damage 1 DAA Taraxacum officinale ([3]; adjuvant 5% w/v): 5%; avg % damage 6 DAA Taraxacum officinale ([3]; adjuvant 5% w/v): 3%; avg % damage 1 DAA Taraxacum officinale ([3]; adjuvant 10% w/v): 5%; avg % damage 6 DAA Taraxacum officinale ([3]; adjuvant 10% w/v): 3% |
| Tri-sec-butylphenol polyglycol ether with 6 Moles of ethoxylation [SAPOGENAT T 060] | 0 | 5 | 0 | 5 | 0 | 25 | 0 | 35 | 0 | 0 | 0 | 0 | 0 | 20 | 0 | 20 | 0 | 0 | 0 | 0 | avg % damage 1 DAA Taraxacum officinale ([3]; adjuvant 5% w/v): 0%; avg % damage 6 DAA Taraxacum officinale ([3]; adjuvant 5% w/v): 0%; avg % damage 1 DAA Taraxacum officinale ([3]; adjuvant 10% w/v): 0%; avg % damage 6 DAA Taraxacum officinale ([3]; adjuvant 10% w/v): 0% |
